In test [1] the target is Tyk2 kinase domain (JH1) (Homo sapiens (Human), UniProt P29597). Description: Tyk2 Radioactive Kinase Assay. Format: biochemical. The conditions noted are these: ATP 10 μM. Here is the method:
(§1) The Tyk2 and JAK2 radioactive kinase assay measures the percent inhibition at the Tyk2 kinase domain (JH1) and the percent inhibition at the JAK2 kinase domain (JH1). Results of the assay are expressed as percent inhibition at 10 μM.

Test [2] deals with human TYK2 (JH2 domain-pseudokinase) (Homo sapiens (Human), UniProt P29597). Description: TYK2 JH2 Domain Binding Assay (KINOMEscan). The method, then: Binding constants for compounds of the present invention against the JH2 domain were determined by the following protocol for a KINOMEscan® assay (DiscoveRx). A fusion protein of a partial length construct of human TYK2 (JH2 domain-pseudokinase) (amino acids G556 to D888 based on reference sequence NP_003322.3) and the DNA binding domain of NFkB was expressed in transiently transfected HEK293 cells. From these HEK 293 cells, extracts were prepared in M-PER extraction buffer (Pierce) in the presence of Protease Inhibitor Cocktail Complete (Roche) and Phosphatase Inhibitor Cocktail Set II (Merck) per manufacturers' instructions. The TYK2 (JH2 domain-pseudokinase) fusion protein was labeled with a chimeric double-stranded DNA tag containing the NFkB binding site (5′-[…]-3′) fused to an amplicon for qPCR readout, which was added directly to the expression extract (the final concentration of DNA-tag in the binding reaction is 0.1 nM).
The liganded beads were blocked with excess biotin and washed with blocking buffer (SeaBlock (Pierce), 1% BSA, 0.05% Tween 20, 1 mM DTT) to remove unbound ligand and to reduce nonspecific binding.
Extracts were used directly in binding assays without any enzyme purification steps at a ≥10,000-fold overall stock dilution (final DNA-tagged enzyme concentration<0.1 nM). Extracts were loaded with DNA-tag and diluted into the binding reaction in a two step process. First extracts were diluted 1:100 in 1× binding buffer (PBS/0.05% Tween 20/10 mM DTT/0.1% BSA/2 μg/ml sonicated salmon sperm DNA) containing 10 nM DNA-tag. This dilution was allowed to equilibrate at room temperature for 15 minutes and then subsequently diluted 1:100 in 1× binding buffer. […] Kds were determined using an 11-point 3-fold compound dilution series with three DMSO control points. […] The compounds were then diluted directly into the assays such that the final concentration of DMSO was 0.9%. All reactions performed in polypropylene 384-well plates. Each was a final volume of 0.02 mL. Assays were incubated with shaking for 1 hour at room temperature. Then the beads were pelleted and washed with wash buffer (lx PBS, 0.05% Tween 20) to remove displaced kinase and test compound. […] The qPCR protocol consisted of a 10 minute hot start at 95° C., followed by 35 cycles of 95° C. for 15 seconds, 60° C. for 1 minute.
Kds were determined using an 11-point 3-fold compound dilution series with three DMSO control points. […] The compounds were then diluted directly into the assays such that the final concentration of DMSO was 0.9%. The Kds were determined using a compound top concentration of 30,000 nM. Kd measurements were performed in duplicate.
Binding constants (Kds) were calculated with a standard dose-response curve using the Hill equation: […]
The Hill Slope was set to −1.

The target of test [3] is JAK2 kinase domain (JH1) (Homo sapiens (Human), UniProt O60674). The experiment in a line: JAK2 Radioactive Kinase Assay. Format: biochemical. The conditions noted are these: ATP 10 μM. Here is the method: as §1
Test [4] concerns GM-CSF induced STAT5 phosphorylation mediated by the JAK2/JAK2 homdimeric complex. The experiment in a line: GM-CSF Induced pSTAT5 in Human PBMC. The conditions noted are these: GM-CSF 5 ng/mL for 20 minutes, pSTAT5.
Description: Human PBMC are isolated from buffy coat and are stored frozen for assays as needed.
The test system of test [5] is IL-12 induced STAT4 phophorylation mediated by Tyk2/JAK2 (heterodimeric complex). The experiment in a line: IL-12 Induced pSTAT4 in Human PBMC. The conditions noted are these: 1.7 ng/mL IL-12. The test is classed as cell-based. The text has this:
The IL-12 Induced pSTAT4 assay evaluates the inhibition of IL-12 induced STAT4 phophorylation mediated by Tyk2/JAK2 (heterodimeric complex).

Setting [6] is: Homo sapiens, PBMC, 20 min, read-out: PBMC_GMCSF_pSTAT5 IC50, human PBMC.
Setting [7] is: read-out: PBMC_GMCSF_pSTAT5 IC50, human PBMC.

SMILES strings stand for the structures. Where two headings read alike, the source gives them in different places. Where only a bound is given, the exact number is not on record here.

human TYK2 (JH2 domain-pseudokinase), sequence (P29597 556-888): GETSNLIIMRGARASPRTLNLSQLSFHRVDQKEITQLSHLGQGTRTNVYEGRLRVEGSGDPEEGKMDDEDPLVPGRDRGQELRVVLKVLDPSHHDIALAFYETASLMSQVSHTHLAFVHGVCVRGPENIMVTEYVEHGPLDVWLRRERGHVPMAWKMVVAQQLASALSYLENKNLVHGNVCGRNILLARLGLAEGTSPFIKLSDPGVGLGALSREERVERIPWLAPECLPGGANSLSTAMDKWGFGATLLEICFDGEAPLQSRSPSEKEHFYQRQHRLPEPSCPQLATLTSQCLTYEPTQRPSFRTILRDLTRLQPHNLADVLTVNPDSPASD
JAK2 kinase domain (JH1), sequence (O60674 849-1124): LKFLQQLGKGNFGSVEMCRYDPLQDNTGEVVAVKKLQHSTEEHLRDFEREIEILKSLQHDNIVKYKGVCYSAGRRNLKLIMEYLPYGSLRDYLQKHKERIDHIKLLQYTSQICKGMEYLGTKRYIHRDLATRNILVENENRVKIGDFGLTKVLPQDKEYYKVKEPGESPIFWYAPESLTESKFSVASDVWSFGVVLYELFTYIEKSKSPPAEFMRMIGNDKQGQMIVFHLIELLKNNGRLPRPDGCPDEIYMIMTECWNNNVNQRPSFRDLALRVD
Tyk2 kinase domain (JH1), sequence (P29597 897-1176): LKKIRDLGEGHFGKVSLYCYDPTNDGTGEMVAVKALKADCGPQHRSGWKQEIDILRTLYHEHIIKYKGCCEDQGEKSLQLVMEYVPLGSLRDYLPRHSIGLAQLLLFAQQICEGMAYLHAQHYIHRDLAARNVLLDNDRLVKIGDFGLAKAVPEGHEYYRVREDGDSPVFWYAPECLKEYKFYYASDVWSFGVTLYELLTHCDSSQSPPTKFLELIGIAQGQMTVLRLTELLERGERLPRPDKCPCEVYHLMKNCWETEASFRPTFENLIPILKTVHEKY

As usually defined, the inhibition is how much of the control response was suppressed. In general, Kd refers to the equilibrium constant for the complex coming apart. With `CNc1cc(Nc2cccn(-c3cnc(C(=O)N(C)C)cn3)c2=O)nc2c(C(N)=O)cnn12` [I-53, 5-((1-(5-(dimethylcarbamoyl)pyrazin-2-yl)-2-oxo-1,2-dihydropyridin-3-yl)amino)-7-(methylamino)pyrazolo[1,5-a]pyrimidine-3-carboxamide], the inhibition at 10 µM in test [1] (10 μM compound) and in test [3] (10 μM compound) was < 50% in each case. Besides, the Kd in test [2] is < 0.2 nM.
Take `CNc1cc(Nc2cccn(-c3cccc(C)n3)c2=O)nc2c(C(=O)NC3CC3)cnn12` [I-237]: in test [1] (10 μM compound), the “Tyk2 JH1% Inhibition @ 10 μM” value is on record as “A (percent inhibition at 10 μM lower than 50)”. Moreover, the “JAK2 JH1% Inhibition @ 10 μM” value in test [3] (10 μM compound) was “A (percent inhibition at 10 μM lower than 50)”.
For the compound `CNc1cc(Nc2cccnc2OC2CC2)nc2c(C(=O)NC3CC4(COC4)C3)cnn12` [I-433], the inhibition at 10 µM in test [1] (compound at 10 μM) is < 50%; in test [3] (compound at 10 μM), 50 to 70%.
Regarding `[2H]C([2H])([2H])Oc1ncccc1Nc1cc(NC)n2ncc(C(=O)N[C@H]3[C@@H]4COC[C@@H]43)c2n1` [I-447], the Kd in test [2] was < 0.2 nM.
Consider `CNc1cc(Nc2cc(F)cn(C3CCOCC3)c2=O)nc2c(C(=O)NCC(C)(C)CO)cnn12` [I-529], for which the inhibition at 10 µM in test [1] (compound at 10 μM) and in test [3] (compound at 10 μM) was < 50% each time.
In test [2], `CNc1cc(Nc2cccc([C@@H]3CCCOC3)n2)nc2c(C(=O)N[C@H]3CC[C@H]3O)cnn12` [I-645] gave a Kd of 1 to 10 nM.
What is called IC50 is the concentration that gives 50% inhibition. In the case of `CNc1cc(Nc2cc(Cl)cn(C3CCOCC3)c2=O)nc2c(C(=O)NCC(C)(C)CO)cnn12` [I-694], the inhibition at 10 µM in test [1] (compound at 10 μM) and in test [3] (compound at 10 μM) was < 50% throughout. Further, the Kd in test [2] is < 0.2 nM. The IC50 in test [4] (setting [6]) was > 50000 nM; in test [5], < 100 nM.
Take `CNc1cc(Nc2cccc(N3CCOC4(CCOC4)C3)n2)nc2c(C(=O)NC3CC3)cnn12` (centres unmarked) [I-744]: the inhibition at 10 µM in test [1] (compound at 10 μM) and in test [3] (compound at 10 μM) was < 50% in each case.
Take `CNC(=O)c1occc1Nc1cc(NC)n2ncc(C(=O)N[C@@H]3C[C@@H]3F)c2n1` [I-888, N-((1R,2S)-2-fluorocyclopropyl)-7-(methylamino)-5-((2-(methylcarbamoyl)furan-3-yl)amino)pyrazolo[1,5-a]pyrimidine-3-carboxamide]: the IC50 in test [4] (setting [6]) was > 50000 nM; in test [5], < 100 nM.
`CNc1cc(Nc2cccn3ccnc23)nc2c(C(=O)NC3CC3)cnn12` [I-891]: the IC50 was > 50000 nM in test [4] (setting [6]) and < 100 nM in test [5].
As to `CNc1cc(Nc2cccn3ccnc23)nc2c(C(=O)N[C@@H]3C[C@@H]3F)cnn12` [I-892], the 50% inhibitory concentration (IC50) in test [4] (setting [6]) is > 12500 nM; in test [5], < 100 nM.
As for `CNc1cc(Nc2cccn(-c3ccccn3)c2=O)nc2c(C(=O)N[C@@H]3CC[C@H]3OC)cnn12` [I-908, N-((1R,2R)-2-methoxycyclobutyl)-7-(methylamino)-5-((2-oxo-2H-[1,2′-bipyridin]-3-yl)amino)pyrazolo[1,5-a]pyrimidine-3-carboxamide], the IC50 in test [4] (setting [7]) was > 50000 nM; in test [5], < 100 nM.
As to `CNC(=O)c1nscc1Nc1cc(NC)n2ncc(C(=O)N[C@@H]3C[C@@H]3F)c2n1` [I-914], the IC50 in test [4] (setting [6]) is > 50000 nM; in test [5], < 100 nM.
As to `CNc1cc(Nc2cccn([C@H]3CC[C@@H]3O)c2=O)nc2c(C(=O)N[C@@H]3C[C@@H]3F)cnn12` [I-916], the results for the concentration for half-maximal inhibition (IC50) in test [4] (setting [6]) and in test [5] were > 50000 nM and < 100 nM, respectively.
`CNc1cc(Nc2cccn(C(C)C)c2=O)nc2c(C(=O)N[C@@H]3CC[C@H]3O)cnn12` [I-918]: the IC50 in test [4] (setting [6]) was > 50000 nM; in test [5], < 100 nM.
Taken in the same sequence, the figures for `CNc1cc(Nc2cc(Cl)cn(C3CCN(C)CC3)c2=O)nc2c(C(=O)N[C@@H]3CC[C@H]3O)cnn12` [I-930] were > 50000 nM and < 100 nM.
Regarding `CNc1cc(Nc2cccn(C3CCCCC3)c2=O)nc2c(C(=O)N[C@@H]3CC[C@H]3O)cnn12` [I-943], the IC50 in test [4] (setting [6]) is > 50000 nM; in test [5], < 100 nM.
As to `CNc1cc(Nc2cccn(-c3cccc(F)c3)c2=O)nc2c(C(=O)N[C@@H]3CC[C@H]3O)cnn12` [I-946], the IC50 was > 50000 nM in test [4] (setting [6]) and < 100 nM in test [5].
Consider `CNc1cc(Nc2cccn([C@@H]3CCC[C@H](OC)C3)c2=O)nc2c(C(=O)NCC(C)(C)CO)cnn12` [I-951], for which the IC50 was > 50000 nM in test [4] (setting [6]) and < 100 nM in test [5].
Taken in the same sequence, the figures for `CNc1cc(-c2cn(CCN3CCN(C)CC3)c3ncccc23)nc2c(C(=O)N[C@H]3CC[C@@H]3OC)cnn12` [I-952] were > 2500 nM and 100 to 500 nM.
On to `CNc1cc(Nc2cccn([C@H]3CC[C@](C)(OC)CC3)c2=O)nc2c(C(=O)N[C@@H]3CC[C@H]3OC)cnn12` [I-959], for which the IC50 was > 50000 nM in test [4] (setting [6]) and < 100 nM in test [5].
`CNc1cc(-c2cn(C3CC3)c3ncccc23)nc2c(C(=O)NC3CC3)cnn12` [I-960, N-cyclopropyl-5-(1-cyclopropyl-1H-pyrrolo[2,3-b]pyridin-3-yl)-7-(methylamino)pyrazolo[1,5-a]pyrimidine-3-carboxamide]: the IC50 in test [4] (setting [6]) was > 50000 nM; in test [5] it was < 100 nM.
The like results for `CNc1cc(-c2cn(C3CC3)c3ncccc23)nc2c(C(=O)N[C@@H]3C[C@@H]3F)cnn12` [I-961, 5-(1-cyclopropyl-1H-pyrrolo[2,3-b]pyridin-3-yl)-N-((1R,2S)-2-fluorocyclopropyl)-7-(methylamino)pyrazolo[1,5-a]pyrimidine-3-carboxamide] were, in that order, > 50000 nM and < 100 nM.
Taken in the same sequence, the figures for `CNc1cc(-c2cn(C3CC3)c3ncccc23)nc2c(C(=O)N[C@H]3CC[C@H]3O)cnn12` [I-992, 5-(1-cyclopropyl-1H-pyrrolo[2,3-b]pyridin-3-yl)-N-((1S,2R)-2-hydroxycyclobutyl)-7-(methylamino)pyrazolo[1,5-a]pyrimidine-3-carboxamide] were > 50000 nM and < 100 nM.
For `CNc1cc(Nc2cccn([C@@H]3CCC[C@H](OC)C3)c2=O)nc2c(C(=O)N[C@@H]3CC[C@H]3OC)cnn12` [I-995], the IC50 in test [4] (setting [6]) is > 50000 nM; in test [5], < 100 nM.
For the compound `CNc1cc(Nc2cccn(C3CCCCC3)c2=O)nc2c(C(=O)N[C@@H]3CC[C@@H]3O)cnn12` [I-1000], the IC50 in test [4] (setting [6]) is > 50000 nM; in test [5], < 100 nM.
On to `CNc1cc(Nc2cccn(C3CCCCC3)c2=O)nc2c(C(=O)N[C@@H]3CC[C@H]3O)cnn12` [I-1002], for which the IC50 in test [4] (setting [7]) is > 50000 nM; in test [5], < 100 nM.
`CNc1cc(Nc2cccn(-c3ccccn3)c2=O)nc2c(C(=O)N[C@@H]3CC[C@H]3COC)cnn12` [I-1232] showed a Kd in test [2] of 0.2 to 1 nM.
As for `CNc1cc(-c2cn(C3CC3)c3ncccc23)nc2c(C(=O)N[C@@H]3CC[C@H]3OC)cnn12` [I-1324], the Kd in test [2] was < 0.2 nM.
`CNc1cc(-c2cn([C@H]3CCN(CCF)C3)c3cnccc23)nc2c(C(=O)N[C@@H]3C[C@@H]3F)cnn12` [I-1362] came in with a Kd in test [2] of 0.2 to 1 nM. The IC50 in test [5] is < 100 nM.
For `CNc1cc(-c2cn([C@H]3CCN(CCF)C3)c3cnccc23)nc2c(C(=O)NC3CC3)cnn12` [I-1363], the Kd in test [2] lay within 0.2 to 1 nM.
On the same count and under the same terms, as for `CNc1cc(Nc2cccn(C(C)C)c2=O)cc2c(C(=O)N[C@H]3CC[C@@]3(C)O)cnn12` [I-1371], the figure is < 0.2 nM.
`CNc1cc(C2=CN(C(C)C)C3N=CC(F)=CC23)nc2c(C(=O)N[C@@H]3CC[C@@H]3O)cnn12` (some centres unmarked) [I-1386] yielded a Kd in test [2] of 1 to 10 nM.
For `CNc1cc(C2=CN(C(C)C)C3N=CC(F)=CC23)nc2c(C(=O)N[C@H]3CC[C@H]3O)cnn12` (some centres unmarked) [I-1387], the Kd in test [2] lay within 1 to 10 nM. Further, the IC50 in test [5] was < 100 nM.

Values taken from patent US10577373B2, “TYK2 inhibitors and uses thereof” (Nimbus Lakshmi, Inc., priority 2017, dated 2020).
